The structures appear in SMILES notation. Values joined by “and” are separate entries in the source; they are usually repeats but may differ in a detail not shown here. Identical values can stand only once.

Assay [1] has as its system commercial electrocompetent E. coli cells. The experiment in a line: Preservation yield and stability of commercial electrocompetent E. coli cells. Format: cell-based. As to the method:
(4) Preservation of electrocompetent E. coli cells: The cells (resuspended in PBS buffer or on 20% sucrose) were mixed with an equal mass of preservation solution consisting of 45% 2:1 sucrose:raffinose or 45% 4:1 sucrose:MAG on ice. Altematively, the cell pellets were resuspended directly in 22.5% sucrose:raffinose or 22.5% 4:1 sucrose:MAG. The 0.5 g aliquots were distributed in 5 ml glass serum vials or 0.2 g aliquots were distributed in 1.2 ml glass serum vials. To determine the survival in preservation solution before drying, cell-containing mixtures were diluted in PBS buffer containing 20% sucrose and appropriate dilutions were spread plated in duplicate on L-agar plates.
The samples were dried by foam formation. The mixtures were foamed at 0° C. and kept at that temperature until foam formation occurred. After foam was well formed, shelf temperature was increased to 20° C. and drying continued overnight (at least 12 hours).
When applicable, electrocompetent cells were frozen in the following manner. The cell suspension (100 μl) was mixed with 10% DMSO (10 μl) and slowly frozen at −80° C.
(5) Assaying the preserved E. coli cells: Dried samples were rehydrated at room temperature. 1 ml of rehydration solution (20% sucrose) was added to the 5 ml vials and 0.2 ml was added to the 1.2 ml vials. For the determination of preservation survival, rehydrated cells were diluted and spread plated in duplicate on L-agar plates. Plates were incubated at 37° C. overnight and colonies were counted the following day.
In this example, commercial electrocompetent E. coli cells, in the form of a bacterial pellet, were preserved by the foam formation process. The cells were concentrated 100-fold and preserved as described previously. To increase desiccation tolerance and enhance preservation survival. One aliquot of the cells were loaded in vitro with 10% MAG. The preserved cells were stored at 4° C. In addition to preservation by foam formation, the cells were preserved by slow freezing (with 10% DMSO) at −80° C.

Assay [2] has the same test system. The experiment in a line: Electroporation of preserved commercial electrocompetent E. coli cells. In kind it is cell-based. To be noted: loaded with 10% MAG, transformed immediately after drying. The protocol: (2) Electroporation of fresh E. coli electrocompetent cells: Two aliquots of the concentrated cells (50 μl each) were transferred into pre-chilled Eppendorf tubes (1.5 ml) and 2 μl of pUC18 plasmid DNA (approx. 300 ng/μl) were added to the tubes. The [cells+DNA] mixtures were incubated on ice for 5 minutes and transferred into pre-chilled cuvettes for electroporation. The cells were electroporated by using a BTX T-100 electroporator, at 625 or at 800 volts (V) in BTX cuvettes (0.1 cm gap, P/N 610 Disposable Cuvettes) with a time constant “r” equal 5 msec. Under the pulse conditions described above, the cells were subjected to an electrical field “E” equal to 6.25 kV/cm or 8.0 kV/cm.
Immediately after the pulse, the cells were transferred into small glass tubes (10×100 mm) with 0.5 ml of “outgrowth medium” (L-broth+20% sucrose+10 mM CaCl2). The electroporated bacteria were incubated at 37° C. with moderate shaking (150 rpm) for 60 minutes. When the 60 minutes period elapsed, the cells were diluted in “outgrowth medium” and duplicate samples were spread plated on L-agar plates with no antibiotic (to determine electroporation survival) and on L-agar plates with 50 μg/ml or 100 μg/ml of ampicillin (selective marker on pUC18 plasmid; to determine electroporation efficiency). The plates were incubated overnight at 37° C. and the colonies were counted the next day.
(6) Electroporation of dried (preserved) E. coli cells: One or two 50 μl aliquots were removed from each rehydrated vial and transferred to pre-chilled Eppendorf tubes. The cells were mixed with pUC18 plasmid DNA (300 ng/μl) and electroporated using the conditions described previously for the electroporation of fresh electrocompetent cells.
Electroporation survival was calculated as the number of viable cells recovered after electrical pulse per total number of electroportated cells. Electroporation efficiency was calculated as the number of transformants (cells which received pUC18 plasmid DNA) per number of cells recovered after electroporation (electroporation survival). When applicable, the electroporation efficiency was also expressed as number of transformants per 1 μg of pUC18 DNA (Cfu/μg).
Preserved commercial cells (vitrified and frozen) were electroporated as described previously. Electroporation survival and electroporation efficiency in the preserved cells were determined and compared to the same parameters in the fresh cells (Table 5).

Where [3] appears, read: Frozen cells 72 hours at −80° C., foam formation-preserved cells (loaded with 10% MAG) dried overnight.
Setting [4] is: foam-preserved cells stored at 4° C., frozen cells at −80° C.

With `COC1OC(CO)C(O)C(O)C1O` (stereo not drawn) [MAG, a-methyl-glucoside], in assay [1] (setting [3]), the “Preservation Yield Cfu/ml” value is reported as 8.8 × 10^9 +/− 3.9 × 10^8 Cfu/ml; the Preservation yield % is 63.6% and 63.6 +/− 2.8%. Moreover, in assay [1] (setting [4]), the “Stability (12 days) %” value was 68.5% and 68.5 +/− 0.8%; the “Stability (12 days) Cfu/ml” value is 9.5 × 10^9 +/− 1.1 × 10^8 Cfu/ml. Besides, in assay [2], the “Electroporation Efficiency 10^−3%” value is 6.1 +/− 5.5 10^−3%, the “Electroporation Efficiency (Cfu/µg DNA)” value was 1.6 × 10^4 +/− 1.8 × 10^2 Cfu/µg DNA, the “Electroporation Efficiency Cfu/ml” value is recorded as 1.9 × 10^5 +/− 1.7 × 10^5 Cfu/ml and the “Electroporation Survival (%)” value is 35.7 +/− 4.7%. The “Electroporation Survival Cfu/ml” value in assay [2] (cell density 1/10 of fresh concentrates) is 3.2 × 10^9 +/− 4.2 × 10^8 Cfu/ml.
